Reference: patent US20150118229A1, “JAK1 SELECTIVE INHIBITOR AND USES THEREOF” (ABBVIE INC., priority 2013, published 2015)
pIC50: −log10 of the molar value. “And” between values parts separate entries of the source, which are not always exact repeats. Identical values can stand only once. “Also recorded” adds a separate entry of the source. Like-named read-outs stand apart in the source and are kept apart here.

Assays:
all other CYPs = assay: Metabolism by all other recombinant CYPs; assay type: in vitro ADME
MATE1 = MATE1 (Homo sapiens, UniProt Q96FL8); assay: Transporter inhibition, MATE1
Sequence of MATE1 (Q96FL8 whole entry): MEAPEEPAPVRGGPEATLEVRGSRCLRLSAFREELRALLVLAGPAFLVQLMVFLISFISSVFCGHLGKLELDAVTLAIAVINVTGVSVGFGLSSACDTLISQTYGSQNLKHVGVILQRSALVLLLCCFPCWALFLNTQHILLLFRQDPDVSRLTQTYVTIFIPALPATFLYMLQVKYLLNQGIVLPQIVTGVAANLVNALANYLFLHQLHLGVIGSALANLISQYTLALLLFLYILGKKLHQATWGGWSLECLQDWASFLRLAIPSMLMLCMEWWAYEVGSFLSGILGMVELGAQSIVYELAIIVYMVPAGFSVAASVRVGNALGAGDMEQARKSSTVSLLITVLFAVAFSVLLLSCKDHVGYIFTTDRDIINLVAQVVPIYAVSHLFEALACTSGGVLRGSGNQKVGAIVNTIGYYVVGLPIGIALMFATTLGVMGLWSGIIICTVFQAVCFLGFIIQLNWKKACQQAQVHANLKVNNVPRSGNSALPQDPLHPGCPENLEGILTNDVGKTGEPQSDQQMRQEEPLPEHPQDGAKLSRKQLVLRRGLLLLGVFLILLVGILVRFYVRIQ

OATP1B1 = OATP1B1 (Homo sapiens, UniProt Q9Y6L6); assay: Transporter inhibition, OATP1B1
Sequence of OATP1B1 (Q9Y6L6 whole entry): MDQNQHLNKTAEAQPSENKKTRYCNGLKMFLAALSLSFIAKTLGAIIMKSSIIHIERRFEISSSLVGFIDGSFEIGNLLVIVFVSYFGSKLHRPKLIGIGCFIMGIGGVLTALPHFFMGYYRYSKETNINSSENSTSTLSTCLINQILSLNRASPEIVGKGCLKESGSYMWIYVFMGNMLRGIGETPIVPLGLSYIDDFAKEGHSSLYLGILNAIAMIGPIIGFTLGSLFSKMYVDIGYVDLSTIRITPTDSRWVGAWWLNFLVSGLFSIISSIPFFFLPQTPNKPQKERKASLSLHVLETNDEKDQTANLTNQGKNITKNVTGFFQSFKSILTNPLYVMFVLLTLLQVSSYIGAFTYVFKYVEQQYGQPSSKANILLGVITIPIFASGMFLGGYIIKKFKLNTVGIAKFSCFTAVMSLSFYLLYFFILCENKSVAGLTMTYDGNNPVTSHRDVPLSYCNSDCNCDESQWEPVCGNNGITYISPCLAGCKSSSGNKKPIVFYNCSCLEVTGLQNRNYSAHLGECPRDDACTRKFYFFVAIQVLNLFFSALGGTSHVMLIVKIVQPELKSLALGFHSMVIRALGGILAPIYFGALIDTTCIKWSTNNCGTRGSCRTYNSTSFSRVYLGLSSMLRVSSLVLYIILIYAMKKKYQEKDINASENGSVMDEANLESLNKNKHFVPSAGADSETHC

P-gp = P-gp (Homo sapiens, UniProt P08183); assay: P-gp inhibition; assay type: in vitro ADME
[1] = biological target: CYP3A4 (midazolam/testosterone) (Homo sapiens, UniProt P08684); assay: CYP inhibition in human liver microsomes, CYP3A4
Sequence of CYP3A4 (midazolam/testosterone) (P08684 whole entry): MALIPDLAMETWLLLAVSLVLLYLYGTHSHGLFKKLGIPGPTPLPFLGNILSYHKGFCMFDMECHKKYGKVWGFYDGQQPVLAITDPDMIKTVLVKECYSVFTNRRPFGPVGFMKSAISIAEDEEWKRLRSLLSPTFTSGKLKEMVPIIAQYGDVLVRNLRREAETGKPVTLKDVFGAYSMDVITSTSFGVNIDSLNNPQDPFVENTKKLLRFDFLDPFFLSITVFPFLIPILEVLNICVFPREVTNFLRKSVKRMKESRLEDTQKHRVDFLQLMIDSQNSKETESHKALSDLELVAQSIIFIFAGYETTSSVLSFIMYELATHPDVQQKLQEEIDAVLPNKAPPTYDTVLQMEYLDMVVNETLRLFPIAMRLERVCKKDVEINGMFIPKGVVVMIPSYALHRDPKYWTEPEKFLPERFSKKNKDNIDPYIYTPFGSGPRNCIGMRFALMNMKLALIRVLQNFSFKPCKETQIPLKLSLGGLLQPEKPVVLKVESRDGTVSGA

[2] = 6-month (26 weeks) GLP chronic oral toxicity study in rats; assay type: in vivo, rat; conditions: for AUC(0-t) / Cmax: po, rat 20 mg/kg/day; for AUC(0-t): read-out: AUC0-24 at NOAEL; for Cmax: read-out: Cmax at NOAEL
Description: The GLP-compliant studies each included 4 weeks of oral dosing followed by a 4-week recovery period in both rats and dogs followed by GLP-compliant chronic toxicity studies in rats (6 months of oral dosing) and dogs (9 months of oral dosing).
The 6-month chronic rat study was conducted at dose levels of 0, 5, 20, and 50 mg/kg/day by daily oral administration (gavage).

in vivo = conditions: dog; for AUC(0-inf): AUC0-∞
[3] = Plasma protein binding, human; assay type: in vitro ADME
OCT1 = OCT1 (Homo sapiens, UniProt O15245); assay: Transporter inhibition, OCT1; conditions: up to 30 μM
Sequence of OCT1 (O15245 whole entry): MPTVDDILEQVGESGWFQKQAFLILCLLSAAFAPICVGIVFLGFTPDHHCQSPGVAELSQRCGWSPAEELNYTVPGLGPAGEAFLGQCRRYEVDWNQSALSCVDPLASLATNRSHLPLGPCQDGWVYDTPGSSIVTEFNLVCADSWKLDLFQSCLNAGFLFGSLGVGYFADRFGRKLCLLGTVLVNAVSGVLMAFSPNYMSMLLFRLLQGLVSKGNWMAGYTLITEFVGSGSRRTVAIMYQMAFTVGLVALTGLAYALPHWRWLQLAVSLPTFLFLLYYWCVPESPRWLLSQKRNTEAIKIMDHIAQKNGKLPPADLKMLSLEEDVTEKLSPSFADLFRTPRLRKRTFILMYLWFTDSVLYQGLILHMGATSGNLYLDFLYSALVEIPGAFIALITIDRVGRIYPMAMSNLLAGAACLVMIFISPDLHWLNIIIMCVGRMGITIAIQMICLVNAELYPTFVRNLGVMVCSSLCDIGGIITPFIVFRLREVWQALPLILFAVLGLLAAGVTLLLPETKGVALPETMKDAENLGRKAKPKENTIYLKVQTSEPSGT

OATP1B3 = OATP1B3 (Homo sapiens, UniProt Q9NPD5); assay: Transporter inhibition, OATP1B3; conditions: up to 30 μM
CYP2D6 = CYP2D6 (Homo sapiens, UniProt P10635); assay: CYP inhibition in human liver microsomes, CYP2D6
Sequence of CYP2D6 (P10635 whole entry): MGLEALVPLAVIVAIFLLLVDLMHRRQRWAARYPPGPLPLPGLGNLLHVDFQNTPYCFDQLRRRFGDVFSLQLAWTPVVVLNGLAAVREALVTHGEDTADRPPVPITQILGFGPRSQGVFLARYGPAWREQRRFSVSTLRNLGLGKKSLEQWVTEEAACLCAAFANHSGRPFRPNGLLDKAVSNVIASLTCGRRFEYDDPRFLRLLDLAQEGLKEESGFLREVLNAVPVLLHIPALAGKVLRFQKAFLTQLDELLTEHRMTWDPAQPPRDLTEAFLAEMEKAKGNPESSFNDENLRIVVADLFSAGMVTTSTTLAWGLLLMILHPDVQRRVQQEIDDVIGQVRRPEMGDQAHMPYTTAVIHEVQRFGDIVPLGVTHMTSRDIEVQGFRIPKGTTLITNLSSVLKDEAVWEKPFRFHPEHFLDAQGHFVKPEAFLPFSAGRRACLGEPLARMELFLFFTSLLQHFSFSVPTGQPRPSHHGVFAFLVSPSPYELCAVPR

[4] = Plasma protein binding, monkey; assay type: in vitro ADME
[5] = Plasma protein binding, rat; assay type: in vitro ADME
[6] = Non-GLP 4-week oral screening toxicity study in dogs; assay type: in vivo, beagle dogs; conditions: dog, 4 weeks
OAT1 = OAT1 (Homo sapiens, UniProt Q4U2R8); assay: Transporter inhibition, OAT1; conditions: up to 30 μM
Sequence of OAT1 (Q4U2R8 whole entry): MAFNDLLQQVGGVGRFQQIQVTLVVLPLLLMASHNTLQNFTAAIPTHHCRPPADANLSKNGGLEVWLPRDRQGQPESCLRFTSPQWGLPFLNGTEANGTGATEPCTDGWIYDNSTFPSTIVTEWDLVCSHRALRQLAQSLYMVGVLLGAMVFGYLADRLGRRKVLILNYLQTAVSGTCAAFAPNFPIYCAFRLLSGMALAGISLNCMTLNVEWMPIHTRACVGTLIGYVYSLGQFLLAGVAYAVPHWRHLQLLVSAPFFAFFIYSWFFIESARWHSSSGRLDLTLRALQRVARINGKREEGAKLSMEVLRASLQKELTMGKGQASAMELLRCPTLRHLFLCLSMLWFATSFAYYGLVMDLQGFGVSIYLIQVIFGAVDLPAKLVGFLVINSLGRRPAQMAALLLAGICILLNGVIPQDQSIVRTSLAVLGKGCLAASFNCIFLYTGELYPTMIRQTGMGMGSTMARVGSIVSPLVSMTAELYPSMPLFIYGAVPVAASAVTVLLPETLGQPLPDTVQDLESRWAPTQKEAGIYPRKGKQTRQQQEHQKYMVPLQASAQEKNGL

[7] = Safety pharmacology in dogs (mean arterial pressure, heart rate); conditions: dog, in vivo; read-out: Cmax at which effects on mean arterial pressure and heart rate begin
Description: Compound 1 was tested in a battery of safety pharmacology assays.

CYP2C8 = CYP2C8 (Homo sapiens, UniProt P10632); assay: CYP inhibition in human liver microsomes, CYP2C8
Sequence of CYP2C8 (P10632 whole entry): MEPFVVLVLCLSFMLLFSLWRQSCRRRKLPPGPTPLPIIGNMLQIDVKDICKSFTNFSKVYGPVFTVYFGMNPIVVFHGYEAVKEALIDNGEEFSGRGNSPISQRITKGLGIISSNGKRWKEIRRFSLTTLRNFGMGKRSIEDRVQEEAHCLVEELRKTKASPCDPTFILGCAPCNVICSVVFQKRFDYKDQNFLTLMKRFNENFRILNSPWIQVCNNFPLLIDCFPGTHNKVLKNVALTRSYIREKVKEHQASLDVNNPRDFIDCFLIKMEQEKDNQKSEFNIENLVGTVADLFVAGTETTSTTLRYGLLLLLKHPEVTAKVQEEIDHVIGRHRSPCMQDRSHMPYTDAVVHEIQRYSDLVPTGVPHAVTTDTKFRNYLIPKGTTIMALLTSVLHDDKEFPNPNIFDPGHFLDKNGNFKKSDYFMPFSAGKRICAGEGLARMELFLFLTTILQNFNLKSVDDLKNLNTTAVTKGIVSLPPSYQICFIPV

[8] = Metabolic stability in hepatocytes, rat; assay type: in vitro ADME; conditions: read-out: intrinsic clearance in hepatocytes (converted)
OCT2 = OCT2 (Homo sapiens, UniProt O15244); assay: Transporter inhibition, OCT2; conditions: up to 30 μM
Sequence of OCT2 (O15244 whole entry): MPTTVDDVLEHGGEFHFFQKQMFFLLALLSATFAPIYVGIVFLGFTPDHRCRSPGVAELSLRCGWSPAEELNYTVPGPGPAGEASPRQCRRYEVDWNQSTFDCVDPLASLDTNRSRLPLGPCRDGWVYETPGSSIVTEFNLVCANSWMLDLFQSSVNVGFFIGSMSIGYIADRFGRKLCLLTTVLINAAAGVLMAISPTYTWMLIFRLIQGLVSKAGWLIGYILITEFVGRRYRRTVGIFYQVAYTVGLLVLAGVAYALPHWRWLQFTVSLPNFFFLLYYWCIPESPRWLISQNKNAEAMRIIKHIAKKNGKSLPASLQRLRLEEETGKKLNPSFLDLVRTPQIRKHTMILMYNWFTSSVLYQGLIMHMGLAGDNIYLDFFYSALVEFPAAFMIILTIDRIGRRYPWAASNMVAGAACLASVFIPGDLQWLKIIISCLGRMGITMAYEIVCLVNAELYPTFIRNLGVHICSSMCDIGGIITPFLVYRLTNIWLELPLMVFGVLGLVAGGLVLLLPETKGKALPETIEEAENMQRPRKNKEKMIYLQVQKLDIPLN

Pharmacokinetics in rat = assay type: in vivo; conditions: for clearance: read-out: CLp (converted); for Vd: read-out: Vss
CYP1A2 = assay: CYP induction (mRNA) in human hepatocytes, CYP1A2; assay type: in vitro ADME; conditions: 1, 3, and 10 μM
MATEK = MATEK (Homo sapiens, UniProt Q86VL8); assay: Transporter inhibition, MATEK
Sequence of MATEK (Q86VL8 1-566 isoform Q86VL8-3): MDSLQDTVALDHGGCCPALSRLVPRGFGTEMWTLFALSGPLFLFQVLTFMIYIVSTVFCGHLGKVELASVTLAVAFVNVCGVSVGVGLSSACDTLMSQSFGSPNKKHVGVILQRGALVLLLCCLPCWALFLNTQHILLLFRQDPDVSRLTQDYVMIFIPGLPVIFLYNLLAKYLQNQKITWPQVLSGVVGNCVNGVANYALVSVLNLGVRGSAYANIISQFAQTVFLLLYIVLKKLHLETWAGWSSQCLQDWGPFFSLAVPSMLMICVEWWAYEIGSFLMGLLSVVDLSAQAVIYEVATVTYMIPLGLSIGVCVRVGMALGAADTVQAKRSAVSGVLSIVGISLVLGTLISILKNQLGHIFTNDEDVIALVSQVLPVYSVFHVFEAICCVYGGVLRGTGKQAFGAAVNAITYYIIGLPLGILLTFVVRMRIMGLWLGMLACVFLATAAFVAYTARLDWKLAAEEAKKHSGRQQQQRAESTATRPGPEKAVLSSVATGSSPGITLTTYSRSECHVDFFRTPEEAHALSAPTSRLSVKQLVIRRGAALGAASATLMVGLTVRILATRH

[9] = both, beagle, po, 0.5 mg/kg/day
[10] = female, Sprague-Dawley, rat, plasma, po, 50 mg/kg/day, rat F, oral 50 mg/kg/day, Day 1, mean (SD)
[11] = male, Sprague-Dawley, rat, plasma, po, 10 mg/kg/day, rat M, oral 10 mg/kg/day, Day 1, mean (SD)
[12] = male, Sprague-Dawley, rat, plasma, po, 100 mg/kg/day, rat M, oral 100 mg/kg/day, Day 1, mean (SD)
[13] = plasma, rat, IV 0.3 mg/kg single dose
[14] = plasma, rat, IV 0.3 mg/kg single dose, mean (SD)
[15] = plasma, rat, IV 3 mg/kg single dose
[16] = plasma, rat, IV 3 mg/kg single dose, mean (SD)
[17] = rat, plasma, po, 3 mg/kg, oral 3 mg/kg single dose, mean (SD)

In the case of `CC[C@@H]1CN(C(=O)NCC(F)(F)F)C[C@@H]1c1cnc2cnc3[nH]ccc3n12` [Compound 1, (3S,4R)-3-ethyl-4-(3H-imidazo[1,2-a]pyrrolo[2,3-e]pyrazin-8-yl)-N-(2,2,2-trifluoroethyl)pyrrolidine-1-carboxamide], the “percentage of parent remaining” value (all other CYPs) was “greater than 98.0%”, the pIC50 (MATE1) was 4.96 and the pIC50 (OATP1B1) was 4.32. The pIC50 (P-gp) was 3.46, the “time-dependent inhibition of CYP3A4” value ([1]; human liver microsomes) was “No obvious time-dependent inhibition” and the “inhibition of CYP3A4 (midazolam/testosterone)” value ([1]; up to 30 μM) was “did not inhibit; also recorded: not an inhibitor”. It also gave an AUC(0-t) ([2]; female, in vivo, females) of 6.84 µg·h/mL, a Cmax ([2]; female, in vivo, females) of 2.24 µg/mL and an NOAEL at 6 months ([2]; in vivo, rat, 6 months (26 weeks) oral gavage) of 20 mg/kg/day. For the same molecule, the AUC(0-t) ([2]; male, in vivo, males) was 3.83 µg·h/mL, the Cmax ([2]; male, in vivo, males) was 1.11 µg/mL and the “Adverse Findings” value ([2]; rat, 26 weeks, 50 mg/kg/day) was 50: Kidneys-tubular. It also gave an AUC (in vivo; [9]) of 0.359 µg·h/mL, an AUC at 28 days (in vivo; [9]) of 0.339 µg·h/mL and an AUC (in vivo; both, beagle, po, 3 mg/kg/day) of 2.2 µg·h/mL. The AUC at 28 days (in vivo; both, beagle, po, 3 mg/kg/day) was 2.14 µg·h/mL, the Cmax (in vivo; both, beagle, po, 3 mg/kg/day) was 0.617 µg/mL and the AUC (in vivo; both, beagle, po, 5 mg/kg/day) was 4.43 µg·h/mL. For the same molecule, the AUC at 28 days (in vivo; both, beagle, po, 5 mg/kg/day) was 4.1 µg·h/mL, the Cmax (in vivo; both, beagle, po, 5 mg/kg/day) was 1.24 µg/mL and the Vd (in vivo; iv, 1 mg/kg) was 2.6 L/kg. The clearance (in vivo; iv, 1 mg/kg) was 0.66 L/h/kg, the half-life (in vivo; iv, 1 mg/kg) was 3.1 h and the AUC(0-inf) (in vivo; iv, 1 mg/kg) was 1.61 µg·h/mL. The half-life (in vivo; po, 1 mg/kg) was 2.8 h, the AUC(0-inf) (in vivo; po, 1 mg/kg) was 1.24 µg·h/mL and the Cmax (in vivo; po, 1 mg/kg) was 0.349 µg/mL. The AUC(0-inf) (in vivo; po, 5 mg/kg) was 5.31 µg·h/mL, the fraction unbound [3] was 0.53 and the “inhibition of OCT1 uptake” value (OCT1) was “No significant inhibition”. The “inhibition of OATP1B3 uptake” value (OATP1B3) was “No significant inhibition”, the “time-dependent inhibition of CYP2D6” value (CYP2D6; human liver microsomes) was “No obvious time-dependent inhibition” and the “inhibition of CYP2D6” value (CYP2D6; up to 30 μM) was “did not inhibit; also recorded: not an inhibitor”. For the same molecule, the fraction unbound [4] was 0.61, the fraction unbound [5] was 0.36 and the NOAEL ([6]; 5 mg/kg/day) was “None”. For the same molecule, the “Adverse Findings” value ([6]; leading number = dose mg/kg/day) was 5: Popliteal lymph, the “inhibition of OAT1 uptake” value (OAT1) was “No significant inhibition” and the Cmax [7] was 0.42 µg/mL. The “time-dependent inhibition of CYP2C8” value (CYP2C8; human liver microsomes) was “No obvious time-dependent inhibition”, the “inhibition of CYP2C8” value (CYP2C8; up to 30 μM) was “did not inhibit; also recorded: not an inhibitor” and the CLint scaled at 1 μM [8] was 4.07 L/h/kg. For the same molecule, the “inhibition of OCT2 uptake” value (OCT2) was “No significant inhibition”, the AUC (Pharmacokinetics in rat; female, Sprague-Dawley, plasma, rat F, oral 10 mg/kg/day, Day 1, mean (SD)) was 1.87 µg·h/mL and the AUC at 29 days (Pharmacokinetics in rat; female, Sprague-Dawley, plasma, rat F, oral 10 mg/kg/day, Day 29, mean (SD)) was 2.28 µg·h/mL. For the same molecule, the AUC (Pharmacokinetics in rat; female, Sprague-Dawley, plasma, rat F, oral 50 mg/kg/day, Day 1, mean (SD)) was 22.4 µg·h/mL, the AUC at 29 days (Pharmacokinetics in rat; female, Sprague-Dawley, plasma, rat F, oral 50 mg/kg/day, Day 29, mean (SD)) was 33.2 µg·h/mL and the AUC (Pharmacokinetics in rat; female, Sprague-Dawley, plasma, rat F, oral 100 mg/kg/day, Day 1, mean (SD)) was 54.1 µg·h/mL. For the same molecule, the AUC at 29 days (Pharmacokinetics in rat; female, Sprague-Dawley, plasma, rat F, oral 100 mg/kg/day, Day 29, mean (SD)) was 63.8 µg·h/mL, the AUC (Pharmacokinetics in rat; female, Sprague-Dawley, plasma, rat F, oral 200 mg/kg/day, Day 1, mean (SD)) was 108 µg·h/mL and the Cmax (Pharmacokinetics in rat; female, Sprague-Dawley, rat, plasma, po, 10 mg/kg/day, rat F, oral 10 mg/kg/day, Day 1, mean (SD)) was 0.468 µg/mL. It also gave a Cmax at 29 days (Pharmacokinetics in rat; female, Sprague-Dawley, rat, plasma, po, 10 mg/kg/day, rat F, oral 10 mg/kg/day, Day 29, mean (SD)) of 0.65 µg/mL, a Cmax (Pharmacokinetics in rat; [10]) of 5.16 µg/mL and a Tmax (Pharmacokinetics in rat; [10]) of 2.2 h. It also gave a Cmax (Pharmacokinetics in rat; female, Sprague-Dawley, rat, plasma, po, 100 mg/kg/day, rat F, oral 100 mg/kg/day, Day 1, mean (SD)) of 13.5 µg/mL, a Cmax (Pharmacokinetics in rat; female, Sprague-Dawley, rat, plasma, po, 200 mg/kg/day, rat F, oral 200 mg/kg/day, Day 1, mean (SD)) of 18.2 µg/mL and an AUC (Pharmacokinetics in rat; male, Sprague-Dawley, plasma, rat M, oral 10 mg/kg/day, Day 1, mean (SD)) of 1.39 µg·h/mL. The AUC at 29 days (Pharmacokinetics in rat; male, Sprague-Dawley, plasma, rat M, oral 10 mg/kg/day, Day 29, mean (SD)) was 1.49 µg·h/mL, the AUC (Pharmacokinetics in rat; male, Sprague-Dawley, plasma, rat M, oral 50 mg/kg/day, Day 1, mean (SD)) was 15.9 µg·h/mL and the AUC at 29 days (Pharmacokinetics in rat; male, Sprague-Dawley, plasma, rat M, oral 50 mg/kg/day, Day 29, mean (SD)) was 16.8 µg·h/mL. For the same molecule, the AUC (Pharmacokinetics in rat; male, Sprague-Dawley, plasma, rat M, oral 100 mg/kg/day, Day 1, mean (SD)) was 24.9 µg·h/mL, the AUC at 29 days (Pharmacokinetics in rat; male, Sprague-Dawley, plasma, rat M, oral 100 mg/kg/day, Day 29, mean (SD)) was 40.8 µg·h/mL and the AUC (Pharmacokinetics in rat; male, Sprague-Dawley, plasma, rat M, oral 200 mg/kg/day, Day 1, mean (SD)) was 50.4 µg·h/mL. It also gave a Cmax (Pharmacokinetics in rat; [11]) of 0.224 µg/mL, a Tmax (Pharmacokinetics in rat; [11]) of 2.2 h and a Cmax (Pharmacokinetics in rat; male, Sprague-Dawley, rat, plasma, po, 50 mg/kg/day, rat M, oral 50 mg/kg/day, Day 1, mean (SD)) of 3.03 µg/mL. For the same molecule, the Cmax (Pharmacokinetics in rat; [12]) was 3.91 µg/mL, the Tmax (Pharmacokinetics in rat; [12]) was 3.2 h and the Tmax at 29 days (Pharmacokinetics in rat; male, Sprague-Dawley, rat, plasma, po, 100 mg/kg/day, rat M, oral 100 mg/kg/day, Day 29, mean (SD)) was 3.2 h. For the same molecule, the Cmax (Pharmacokinetics in rat; male, Sprague-Dawley, rat, plasma, po, 200 mg/kg/day, rat M, oral 200 mg/kg/day, Day 1, mean (SD)) was 7.25 µg/mL, the half-life (Pharmacokinetics in rat; [13]) was 1 h and the AUC(0-inf) (Pharmacokinetics in rat; [14]) was 0.08 µg·h/mL. For the same molecule, the clearance (Pharmacokinetics in rat; [14]) was 3.8 L/h/kg, the Vd (Pharmacokinetics in rat; [13]) was 2.7 L/kg and the half-life (Pharmacokinetics in rat; [15]) was 3 h. It also gave an AUC(0-inf) (Pharmacokinetics in rat; [16]) of 1.55 µg·h/mL, a clearance (Pharmacokinetics in rat; [16]) of 2 L/h/kg and a Vd (Pharmacokinetics in rat; [15]) of 2.2 L/kg. For the same molecule, the clearance (Pharmacokinetics in rat; plasma, rat, IV) was 2 to 3.8 L/h/kg, the half-life (Pharmacokinetics in rat; plasma, rat, oral 3 mg/kg single dose) was 5.2 h and the AUC(0-inf) (Pharmacokinetics in rat; plasma, rat, oral 3 mg/kg single dose, mean (SD)) was 0.472 µg·h/mL. For the same molecule, the Vc (Pharmacokinetics in rat; rat, IV 0.3 mg/kg single dose) was 1.8 L/kg, the Vβ (Pharmacokinetics in rat; rat, IV 0.3 mg/kg single dose) was 5.7 L/kg and the Vc (Pharmacokinetics in rat; rat, IV 3 mg/kg single dose) was 0.46 L/kg. The Vβ (Pharmacokinetics in rat; rat, IV 3 mg/kg single dose) was 9.4 L/kg, the F (Pharmacokinetics in rat; rat, oral 3 mg/kg single dose, mean (SD), 3 mg/kg) was 30.5% and 30.5 (11.8) % and the Cmax (Pharmacokinetics in rat; [17]) was 0.095 µg/mL. For the same molecule, the Tmax (Pharmacokinetics in rat; [17]) was 2.2 h, the “mRNA expression of CYP1A2” value (CYP1A2) was “did not increase” and the pIC50 (MATEK) was under 4.82.
